Experimental data taken from patent US9949479B2 (priority 2015, dated 2018).
Values after ≈ are worked out from the molar mass of the structure shown. Read-outs that look alike come from different tables or passages of the source.

Columns and labels:
[1] = test system: Fusarium graminearum; assay: microbe, parasite or virus in culture; assay type: cell-based; conditions: sensitive strains, Fusarium graminearum (both types of fusaria)
[2] = test system: Fusarium asiaticum; assay: microbe, parasite or virus in culture; assay type: cell-based
[3] = test system: wheat scab; assay type: in vivo, Fusarium spp.; conditions: Serial 29: Carbendazim 50 g a.i. (control agent)
[4] = test system: wheat scab; assay type: in vivo, Fusarium spp.; conditions: sprayed twice; g ai. agent/mu, Jinggangmycin+Metconazole by row: r16 1+15; r17 3+10; r18 5+5; r19 5+10; r20 5+15; r21 10+3; r22 10+10; r23 10+15; r24 50+3; r25 50+10; r26 50+15; r27 100+5; r28 100+10; Jinggangmycin alone r29 100; r30 50; r31 10; r32 5; r33 3; r34 1; Metconazole alone r35 15; r36 10; r37 5; r38 3; r39 Carbendazim 40
[5] = design: species or system wheat; conditions: in vivo
[6] = test system: DON toxin synthesis capability of thalli; design: species or system Fusarium spp.; conditions: in vivo
[7] = test system: powdery mildew; assay type: in vivo; conditions: dose as in E145
[8] = assay type: in vivo, wheat
[9] = test system: rust; assay type: in vivo; conditions: dose as in E145
[10] = assay type: in vivo, wheat; conditions: Serial 29: Carbendazim 50 g a.i. (control agent)
[11] = test system: leaf blight; assay type: in vivo; conditions: dose as in E145
[12] = assay type: in vivo, wheat; conditions: dose as in E145
[13] = test system: wheat scab; assay type: in vivo, Fusarium spp.

SMILES	ED50 [1] [µg/mL]	ED50 ([2]; sensitive strains, Fusarium asiaticum (both types of fusaria)) [µg/mL]	Disease Index Prevention Effect % Head Blight [3] [%]	Disease Index Prevention Effect % Head Blight [4] [%]	Thousand Kernel Weight [5] [g]	DON Synthesis Capability [6]	Disease Index Prevention Effect % Powdery Mildew [7] [%]	Grain Toxin Content ([8]; dose by row as in E139)	decrease of toxin contamination level in comparison with the blank control ([8]; used for treatment alone) [%]	toxin contamination level of grains ([8]; used for treatment alone)	DON Contamination Reduction Rate % ([8]; vs blank control, dose by row as in E139) [%]	Disease Index Prevention Effect % Rust [9] [%]	Grain Toxin Content (mg of DON/Kg of grain) [10]	Rate of Decrease in Toxin Content in Grains (%) [10] [%]	Disease Index Prevention Effect % Leaf Blight [11] [%]	Grain Toxin Content [12]	DON Reduction Percentage (%) ([12]; vs control)	ED50 [2] [µg/mL]	Disease Index Prevention Effect % Actual Prevention Effect ([13]; sprayed twice, g ai. agent/mu, Jinggangmycin+Metconazole by row: r12 0.5+25, r13 1+20, r14 5+5, r15 5+10, r16 5+15, r17 10+3, r18 10+5, r19 10+10, r20 10+15, r21 50+3, r22 50+5, r23 50+10, r24 50+15, r25 100+3, r26 100+5, r27 100+10, r28 100+15, r29 150+3, Jinggangmycin alone r30 0.5, r31 1, r32 5, r33 10, r34 50, r35 100, r36 150, Metconazole alone r37 3, r38 5, r39 10, r40 15, r41 20, r42 25, r4) [%]	prevention effect on head blight ([13]; used for treatment alone) [%]
CCOC(=O)C(C#N)=C(N)c1ccccc1 [phenamacril]	0.165 (≈ 0.763 µM)	0.165 (≈ 0.763 µM)	–	–	–	–	–	–	–	–	–	–	–	–	–	–	–	–	–	–
COC(=O)Nc1nc2ccccc2[nH]1 [Carbendazim, carbendazim]	0.45 (≈ 2.35 µM)	–	49.04	38.6	41.6	28.94	52.6	4.4 μg of toxin/g of kernels	58.5	4.4 mg/kg of grains	58.5	61.2	4.35 mg of DON/Kg of grain	32.7	48.5	5.67 μg of toxin/g of kernels	55.0	0.45 (≈ 2.35 µM)	67.5	67.5
